Assay results taken from publication PMC12004706, “In vitro inhibition of voltage-dependent sodium currents by the antifungal drug amorolfine” (The Journal of Biological Chemistry, 2025).

Molecular target: T1, Nav1.7 (Homo sapiens, UniProt Q15858)
T1 construct: gene SCN9A; human Nav1.7 channels stably transfected in Expi293F cells
Test: automated whole-cell patch clamp (Qube-384); inverse apparent IC50 vs holding potential fit with four-state binding model
Type: cell-based

T1 sequence (Q15858 whole entry): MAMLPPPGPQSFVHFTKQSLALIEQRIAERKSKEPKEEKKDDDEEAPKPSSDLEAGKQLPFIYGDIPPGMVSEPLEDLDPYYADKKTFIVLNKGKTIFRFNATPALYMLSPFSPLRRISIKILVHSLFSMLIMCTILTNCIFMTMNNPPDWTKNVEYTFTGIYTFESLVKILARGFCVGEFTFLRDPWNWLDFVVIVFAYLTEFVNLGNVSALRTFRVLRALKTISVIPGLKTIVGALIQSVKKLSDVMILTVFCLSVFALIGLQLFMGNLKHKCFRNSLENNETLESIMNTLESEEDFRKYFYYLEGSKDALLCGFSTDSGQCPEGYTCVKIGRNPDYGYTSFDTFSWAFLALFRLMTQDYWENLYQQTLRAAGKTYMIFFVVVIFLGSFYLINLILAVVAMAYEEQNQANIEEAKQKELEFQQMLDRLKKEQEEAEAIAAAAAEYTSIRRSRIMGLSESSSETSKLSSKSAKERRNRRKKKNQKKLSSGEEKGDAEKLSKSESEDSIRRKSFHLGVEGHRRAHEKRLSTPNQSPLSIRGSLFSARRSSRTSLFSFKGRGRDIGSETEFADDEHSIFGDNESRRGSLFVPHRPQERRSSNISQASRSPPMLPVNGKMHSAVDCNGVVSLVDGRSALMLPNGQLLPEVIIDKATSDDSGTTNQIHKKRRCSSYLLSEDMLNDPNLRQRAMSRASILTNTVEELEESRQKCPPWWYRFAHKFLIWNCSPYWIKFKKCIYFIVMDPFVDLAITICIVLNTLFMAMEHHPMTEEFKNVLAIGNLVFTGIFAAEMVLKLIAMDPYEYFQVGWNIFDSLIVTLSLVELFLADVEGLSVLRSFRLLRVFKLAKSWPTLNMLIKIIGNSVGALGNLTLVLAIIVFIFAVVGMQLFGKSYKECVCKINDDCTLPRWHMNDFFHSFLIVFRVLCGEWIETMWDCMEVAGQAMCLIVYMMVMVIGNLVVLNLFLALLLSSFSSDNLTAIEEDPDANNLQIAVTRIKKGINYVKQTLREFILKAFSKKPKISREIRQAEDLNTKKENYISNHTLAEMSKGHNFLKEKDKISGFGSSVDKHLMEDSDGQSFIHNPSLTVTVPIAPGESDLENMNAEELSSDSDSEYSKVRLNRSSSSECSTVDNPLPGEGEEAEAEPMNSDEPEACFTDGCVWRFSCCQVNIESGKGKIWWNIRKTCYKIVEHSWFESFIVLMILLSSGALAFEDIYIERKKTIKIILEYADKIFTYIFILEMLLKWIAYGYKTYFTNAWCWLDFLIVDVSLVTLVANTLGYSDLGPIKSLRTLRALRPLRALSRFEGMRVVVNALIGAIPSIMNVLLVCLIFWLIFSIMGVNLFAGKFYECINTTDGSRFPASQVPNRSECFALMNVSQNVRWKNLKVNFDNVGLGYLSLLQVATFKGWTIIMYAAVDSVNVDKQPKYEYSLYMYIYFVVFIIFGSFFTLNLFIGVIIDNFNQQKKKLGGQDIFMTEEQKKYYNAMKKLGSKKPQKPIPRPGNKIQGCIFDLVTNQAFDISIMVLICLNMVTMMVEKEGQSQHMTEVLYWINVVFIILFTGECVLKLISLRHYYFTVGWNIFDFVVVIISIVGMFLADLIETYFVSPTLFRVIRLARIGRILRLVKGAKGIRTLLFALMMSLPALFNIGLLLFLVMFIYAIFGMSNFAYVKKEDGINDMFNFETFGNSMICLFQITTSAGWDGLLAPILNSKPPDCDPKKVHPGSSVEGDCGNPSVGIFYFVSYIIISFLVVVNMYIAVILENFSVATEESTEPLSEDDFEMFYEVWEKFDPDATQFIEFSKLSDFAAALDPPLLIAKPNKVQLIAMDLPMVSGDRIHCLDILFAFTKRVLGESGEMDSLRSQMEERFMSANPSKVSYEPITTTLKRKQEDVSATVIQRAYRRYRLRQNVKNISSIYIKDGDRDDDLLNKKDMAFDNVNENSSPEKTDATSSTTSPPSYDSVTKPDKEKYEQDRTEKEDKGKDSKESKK

CCC(C)(C)c1ccc(CC(C)CN2C[C@@H](C)O[C@@H](C)C2)cc1 (stereo partly shown) [AMF, amorolfine]
Ki: 3.6 µM
